We go through four molecules from US6727237B2, “Inhibitors of bacterial NAD synthetase” (priority 1998, dated 2004).

Where two headings read alike, the source gives them in different places.

In data set [1] the target is T1, bacterial NAD synthetase enzyme (Bacillus subtilis, UniProt P08164).
T1 sequence (P08164 2-272 limits assumed): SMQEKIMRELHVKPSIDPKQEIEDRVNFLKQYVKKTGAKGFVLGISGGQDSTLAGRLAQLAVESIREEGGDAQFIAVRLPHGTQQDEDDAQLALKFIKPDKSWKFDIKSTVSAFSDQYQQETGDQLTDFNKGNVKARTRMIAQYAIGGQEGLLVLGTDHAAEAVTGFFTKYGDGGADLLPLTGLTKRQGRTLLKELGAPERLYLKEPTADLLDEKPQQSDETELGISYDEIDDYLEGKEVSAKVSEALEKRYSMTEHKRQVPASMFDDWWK
Particulars: 2 mL Assay (cuvette); substrate; double reciprocal plots.

For data set [2], the target named is T1, bacterial NAD synthetase enzyme. Kind of data set: biochemical. Particulars: for Km: 0.2 mL Assay (microtiter plate), substrate. The class given is biochemical.
In data set [3] the test system is Escherichia coli K-12 W3110 (CGSC#4474). Kind of data set: Standard antibiotic paper disk assay, zone of inhibition. It counts as cell-based. Particulars: 250 μg on 6 or 7 mm paper disk; minimal-glucose plate; gram −. The protocol:
(§1) To determine initially if a compound found active in the assays, Compound 864, was also an effective inhibitor of a variety of different bacteria, a standard antibiotic assay was performed. In this assay 250 μg of Compound 864 ([…] in DMSO) was spotted on 6 or 7 mm paper disks. Each disk was placed on separate 30 ml solid-medium plates layered with bacteria Blood agar plates were used for Streptococcus, and minimal-glucose plates were used for the other microorganisms in Table 306. DMSO controls provided negative results.

The subject of data set [4] is Salmonella typhimurium LT2 TT366. The description is as above. It counts as cell-based. To be noted: 250 μg on 6 or 7 mm paper disk; minimal-glucose plate; gram −. Here is the method: as §1
Data set [5] has as its system Streptococcus pneumoniae WU2. Described as above. The class given is cell-based. Particulars: 250 μg on 6 or 7 mm paper disk; blood agar plate; gram +. The protocol:
as §1

The test system of data set [6] is Escherichia coli K-12 MG1655 (CGSC#6300). The description is as above. To be noted: 250 μg on 6 or 7 mm paper disk; minimal-glucose plate; gram −. It counts as cell-based. The protocol:
as §1

Data set [7] deals with Bacillus subtilis A700. Described as above. It counts as cell-based. To be noted: 250 μg on 6 or 7 mm paper disk; minimal-glucose plate; gram +. Here is the method: as §1
The test system of data set [8] is Streptococcus pneumonia D39. The description is as above. To be noted: 250 μg on 6 or 7 mm paper disk; blood agar plate; gram +. The class given is cell-based, Streptococcus pneumoniae. Here is the method:
as §1

Data set [9] concerns Staphylococcus epidermitis. Kind of data set: Bacterial growth inhibition screen in LB media (absorbance 595 nm), percent inhibition. Particulars: S. epidermitis; concentration screened 100 uM.
Substrate in data set [10]: Nc1ncnc2c1ncn2[C@@H]1O[C@H](COP(=O)(O)OP(=O)(O)OP(=O)(O)O)[C@@H](O)[C@H]1O
Kind of data set: purified protein, by the assay type. To be noted: substrate, pH 8.5.

[11] abbreviates: other: 2 mL Assay (cuvette), double reciprocal plots.

The term Km denotes the concentration of substrate that gives half-maximal velocity. Usually Vmax stands for the rate approached at saturating substrate. Turning to `[Mg+2]` [Mg^+2, magnesium], the Km in [1] worked out at 2600 µM; in data set [2] it was 2900 µM. For the same molecule, the Vmax in [1] was determined as 120 nM/s.

As to `Nc1ncnc2c1ncn2[C@@H]1O[C@H](COP(=O)(O)OP(=O)(O)OC[C@H]2O[C@@H]([n+]3cccc(C(=O)O)c3)[C@H](O)[C@@H]2O)[C@@H](O)[C@H]1O` [NaAD, nictonic acid dinucleotide, reference compound], the values for the Km in data set [1] and in data set [2] were 75 µM and 76 µM, respectively. Besides, the Vmax in data set [1] was found to be 286 nM/s.

As usually defined, the % Inhibition is the change of the read-out against control, counted positive when it falls. Read a high % Inhibition as a strong effect. In the case of `C[n+]1cccc(C(=O)OCCCCCn2ccc3cc([N+](=O)[O-])ccc32)c1` [Compound 864], the “ZONE OF INHIBITION” value in [3] was determined as 9.5 mm; in data set [4], 10 mm; in [5], 15 mm; in data set [6] it was 9.5 mm; in data set [7], 19.5 mm; in data set [8], 12 mm. Further, the “% Inhibition” value amounted to 87.03% in data set [9] and 19.33% in [2] (compound at 0.2 mM (Table 312A)).

B1: bacterial NAD synthetase enzyme (Bacillus subtilis subsp. subtilis str. 168) (protein)
chain: SMQEKIMRELHVKPSIDPKQEIEDRVNFLKQYVKKTGAKGFVLGISGGQDSTLAGRLAQLAVESIREEGGDAQFIAVRLPHGTQQDEDDAQLALKFIKPDKSWKFDIKSTVSAFSDQYQQETGDQLTDFNKGNVKARTRMIAQYAIGGQEGLLVLGTDHAAEAVTGFFTKYGDGGADLLPLTGLTKRQGRTLLKELGAPERLYLKEPTADLLDEKPQQSDETELGISYDEIDDYLEGKEVSAKVSEALEKRYSMTEHKRQVPASMFDDWWK
Take B1: in data set [10] (other: 0.2 mL Assay (microtiter plate)), the Km is 152 µM. Further, in [10] (setting [11]), the Km came to 120 µM and the Vmax was 436 nM/s.
